Peptide text beside a SMILES is read from it.
Target: hMC4-R (Homo sapiens (Human), UniProt P32245)
Assay: Competitive binding assay using Eu-NDP-α-MSH (TRF), hMC4-R membranes
Conditions: averaged; Eu-NDP-α-MSH (values marked *); read-out: MC4-R Ki
Procedure: Alternatively, a competitive inhibition binding assay was performed employing Eu-NDP-α-MSH (PerkinElmer Life Sciences catalog No. AD0225) with determination by time-resolved fluorometry (TRF) of the lanthanide chelate. […] After incubation for 90 minutes at 37° C., the reaction was stopped by filtration over AcroWell 96-well filter plates (Pall Life Sciences). The filter plates were washed 4 times with 200 μL of ice-cold phosphate-buffered saline. DELFIA Enhancement solution (PerkinElmer Life Sciences) was added to each well. […] Each assay was conducted in duplicate and mean values were utilized. Ki values were determined by curve-fitting with Graph-Pad Prism® software using a one-site fixed-slope competition binding model.

Chain of hMC4-R (P32245 whole entry): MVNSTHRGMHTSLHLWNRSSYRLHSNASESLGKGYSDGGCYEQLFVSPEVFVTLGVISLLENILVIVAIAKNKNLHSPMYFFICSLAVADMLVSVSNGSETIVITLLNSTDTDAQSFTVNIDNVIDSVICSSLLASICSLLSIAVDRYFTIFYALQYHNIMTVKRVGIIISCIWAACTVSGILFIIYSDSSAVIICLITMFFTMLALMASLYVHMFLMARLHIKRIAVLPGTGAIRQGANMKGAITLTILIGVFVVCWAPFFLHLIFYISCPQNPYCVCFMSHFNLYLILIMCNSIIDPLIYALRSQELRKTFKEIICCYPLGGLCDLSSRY

Row | SMILES | Ki
1 | CC(=O)N[C@@H](CCCNC(=N)N)C(=O)N[C@H]1CC(=O)NCCCC[C@@H](C(N)=O)NC(=O)[C@H](Cc2c[nH]c3ccccc23)NC(=O)[C@H](CCCCN)NC(=O)[C@@H](Cc2ccccc2)NC(=O)[C@H](Cc2c[nH]cn2)NC1=O [compound 6, Ac-Arg-cyclo(Asp-His- D-Phe-Lys-Trp-Lys)- NH2] (HELM PEPTIDE1{[ac].R.D.H.[dF].K.W.K.[am]}$PEPTIDE1,PEPTIDE1,3:R3-8:R3$$$V2.0) | 533 nM
2 | CC(=O)N[C@@H](CCCNC(=N)N)C(=O)N[C@H]1CC(=O)NCCCC[C@@H](C(N)=O)NC(=O)[C@H](Cc2c[nH]c3ccccc23)NC(=O)[C@H](CCCCN)NC(=O)[C@@H](Cc2ccccc2)NC(=O)[C@H](C)NC1=O [compound 8, Ac-Arg-cyclo(Asp-Ala- D-Phe-Lys-Trp-Lys)- NH2] (HELM PEPTIDE1{[ac].R.D.A.[dF].K.W.K.[am]}$PEPTIDE1,PEPTIDE1,3:R3-8:R3$$$V2.0) | 3020 nM
3 | CC(=O)N[C@@H](CCCNC(=N)N)C(=O)N[C@H]1CC(=O)NCCCC[C@@H](C(N)=O)NC(=O)[C@H](Cc2c[nH]c3ccccc23)NC(=O)[C@H](CCCNC(=N)N)NC(=O)[C@@H](Cc2ccccc2)NC(=O)[C@H](Cc2ccc(O)cc2)NC1=O [compound 11, Ac-Arg-cyclo(Asp-Tyr- D-Phe-Arg-Trp-Lys)- NH2] (HELM PEPTIDE1{[ac].R.D.Y.[dF].R.W.K.[am]}$PEPTIDE1,PEPTIDE1,3:R3-8:R3$$$V2.0) | 43 nM
4 | CC(=O)N[C@@H](CCCNC(=N)N)C(=O)N[C@H]1CC(=O)NCCCC[C@@H](C(N)=O)NC(=O)[C@H](Cc2c[nH]c3ccccc23)NC(=O)[C@H](CCCNC(=N)N)NC(=O)[C@@H](Cc2ccccc2)NC(=O)[C@@H]2C[C@@H](OCc3ccccc3)CN2C1=O [compound 15, Ac-Arg-cyclo(Asp- Hyp(Bzl)-D-Phe-Arg- Trp-Lys)-NH2] | 0.7 nM
5 | CC(=O)N[C@@H](CCCNC(=N)N)C(=O)N[C@H]1CC(=O)NCCCC[C@@H](C(N)=O)NC(=O)[C@H](Cc2c[nH]c3ccccc23)NC(=O)[C@H](CCCNC(=N)N)NC(=O)[C@@H](Cc2ccccc2)NC(=O)[C@@H]2C[C@@H](Cc3ccccc3)CN2C1=O [compound 18, Ac-Arg-cyclo(Asp- Pro(4R-Bzl)-D-Phe-Arg- Trp-Lys)-NH2] | 3 nM

Further compounds by falling Ki, results first:

Row | Ki | SMILES
6 | 2960 nM | CC(=O)N[C@@H](CCCNC(=N)N)C(=O)N[C@H]1CC(=O)NCCCC[C@@H](C(N)=O)NC(=O)[C@H](Cc2c[nH]c3ccccc23)NC(=O)[C@H](CCCCN)NC(=O)[C@@H](Cc2ccccc2)NC(=O)[C@H](CCCCN)NC1=O [compound 7, Ac-Arg-cyclo(Asp-Lys- D-Phe-Lys-Trp-Lys)- NH2] (HELM PEPTIDE1{[ac].R.D.K.[dF].K.W.K.[am]}$PEPTIDE1,PEPTIDE1,3:R3-8:R3$$$V2.0)
7 | 33 nM | CC(=O)N[C@@H](CCCNC(=N)N)C(=O)N[C@H]1CC(=O)NCCCC[C@@H](C(N)=O)NC(=O)[C@H](Cc2c[nH]c3ccccc23)NC(=O)[C@H](CCCNC(=N)N)NC(=O)[C@@H](Cc2ccccc2)NC(=O)[C@H](CC(C)C)NC1=O [compound 12, Ac-Arg-cyclo(Asp-Leu- D-Phe-Arg-Trp-Lys)- NH2] (HELM PEPTIDE1{[ac].R.D.L.[dF].R.W.K.[am]}$PEPTIDE1,PEPTIDE1,3:R3-8:R3$$$V2.0)
8 | 19 nM | CC[C@H](C)[C@@H]1NC(=O)[C@@H](NC(=O)[C@H](CCCNC(=N)N)NC(C)=O)CC(=O)NCCCC[C@@H](C(N)=O)NC(=O)[C@H](Cc2c[nH]c3ccccc23)NC(=O)[C@H](CCCNC(=N)N)NC(=O)[C@@H](Cc2ccccc2)NC1=O [compound 34, Ac-Arg-cyclo(Asp-Ile-D- Phe-Arg-Trp-Lys)-NH2] (HELM PEPTIDE1{[ac].R.D.I.[dF].R.W.K.[am]}$PEPTIDE1,PEPTIDE1,3:R3-8:R3$$$V2.0)
9 | 4 nM | CC(=O)N[C@@H](CCCNC(=N)N)C(=O)N[C@H]1CC(=O)NCCCC[C@@H](C(N)=O)NC(=O)[C@H](Cc2c[nH]c3ccccc23)NC(=O)[C@H](CCCNC(=N)N)NC(=O)[C@@H](Cc2ccccc2)NC(=O)[C@H](CCCNC(=N)N)NC1=O [compound 28, Ac-Arg-cyclo(Asp-Arg- D-Phe-Arg-Trp-Lys)- NH2]
